According to PubChem BioAssay AID1963841 (Molecular Pharmacology Branch, DTP, NCI, 2024):
Values joined by “and” are separate entries in the source; they are usually repeats but may differ in a detail not shown here. Equal values may be shown once. One block for each compound: values may come before it.

System: 439559-082-T-J2-PDC spheroid viability
Assay: Anticancer human tumor 439559-082-T-J2-PDC patient-derived colon adenocarcinoma cell line growth inhibition [POLQ]
Conditions: spheroids with HUVEC and MSC; for viability, T/C: stronger effect = lower value
Protocol: Multicellular complex tumor spheroid response to Polymerase (POL) inhibitors (novobiocin, ART-558, RP6685) in combination with a variety of drugs and investigational agents in selected tumor cell lines
The POL inhibitors (novobiocin, ART-558, and RP6685) were evaluated both individually and in combination with standard of care and investigational anticancer small molecules within a complex spheroid model of solid tumors. . Complex spheroids include a stromal component modeled by human endothelial cells (HUVEC) and fibroblasts modeled by human mesenchymal stem cells (MSCs). The concentration ranges selected for each drug and investigational agent were based upon clinically achievable concentrations if the clinical Cmax of the agent was known.
Compounds. The drugs and investigational agents: novobiocin (NSC847541), ART-558 (NSC835418), RP-6685 (NSC848927), peposertib (NSC802822), ceralasertib (NSC780249), elimusertib (NSC800525), camonsertib (NSC841442), AZD-1390 (NSC803789), olaparib (NSC753686), talazoparib (NSC767125), rucaparib (NSC756644), sotorasib (NSC818433), MRTX-1133 (NSC836407), SN-38 (NSC673596), topotecan (NSC609699), epotoside (NSC141540), doxorubicin (NSC123127), gemcitabine (NSC613327), 5-fluorouracil (NSC19893), paclitaxel (NSC125973), vemurafenib (NSC761431), MSA-2 (NSC828583), SN-011 (NSC837082), adavosertib (NSC754352), prexasertib (NSC758257), carboplatin (NSC241240) and oxaliplatin (NSC266046), were obtained from the National Cancer Institute (NCI) Developmental Therapeutics Program Chemical Repository (21). The FDA-approved anticancer drug set is available from the Developmental Therapeutics Program at https://dtp.cancer.gov/organization/dscb/obtaining/. […] The stock solutions were prepared in dimethyl sulfoxide (DMSO, Sigma-Aldrich, St. Louis, MO, cat. D2650), except for the platinum compounds which were prepared in saline (Quality Biological, Gaithersburg, MD, cat. 114-055-101), at 800-fold the tested concentration and stored at -70 degrees C prior to their use. All drugs and investigational agents were tested over a range starting from a high concentration at or near the clinical Cmax and decreasing in half-log increments. If the clinical Cmax for an agent had not been determined, the highest concentration tested was 10 microM, except for SN-38, which was tested at a high concentration of 1 microM.
Cell Culture. All cells were maintained in an incubator at 37 degrees C and 5% CO2 with 95% humidity. The PDC lines were cultured according to standard operating procedures established by the NCI PDMR (https://pdmr.cancer.gov). Table 3 of the manuscript, lists the cell lines along with the number of the three cell types plated to form the mct-spheroids and media for tumor cell growth. After thawing, all PDC lines, except 997537-175-T-J1-PDC and 415267-285-R-J2-PDC, were cultured in Matrigel-coated flasks prepared with a working solution of 1X Ham's F-12 nutrient mix, without supplementation (Thermo Fisher Scientific, cat. 11765054), 100 U/mL penicillin-streptomycin (Thermo Fisher Scientific, cat. 15140122), and 2.5% Matrigel (Corning Inc., Corning, NY, cat. 354248) for the first three passages. The two PDC lines 997537-175-T-J1-PDC and 415267-285-R-J2-PDC were cultured on uncoated flasks. The 857933-349-R-J2-PDC line was cultured in 6C/Colon 1B media containing advanced DMEM/F-12 (Thermo Fisher Scientific, cat. 12634028), 10 mM HEPES (Thermo Fisher Scientific, cat. 15630080), 1X GlutaMAX supplement (Thermo Fisher Scientific, cat. 35050061), 0.1 mg/mL primocin (InvivoGen, San Diego, CA, cat. ant-pm-2), 10% defined fetal bovine serum, heat inactivated (HyClone Laboratories Inc., Logan, UT, cat. SH30070.03HI), 50% L-WRN conditioned media (ATCC, cat. CRL-3276), 1.25 mM N-Acetyl-L-cysteine (Sigma-Aldrich, cat. A9165), 10 mM nicotinamide (Sigma-Aldrich, cat. N0636), 1X B-27 supplement (Thermo Fisher Scientific, cat. 17504044), 1X N-2 supplement (Thermo Fisher Scientific, cat. […]
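Further: spheroids exposed to compounds for seven days before readout.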
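Wherever viability, T/C is given: 100% = DMSO vehicle control viability.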

IC50 (compound alone, run of 11/27/2023): > 10000 nM
IC50 (compound alone, run of 12/05/2023): > 10000 nM
SMILES: Cc1cccc(N(C)C(=O)C2C(O)CCN2c2nc(C)cc(C(F)(F)F)c2C#N)c1 (configuration not stated)
viability, T/C (compound 0.0316 µM): 98.9% [middle of 12 runs]
viability, T/C (compound 0.1 µM): 95.7% [middle of 12 runs]
viability, T/C (compound 0.316 µM): 97.4% [middle of 12 runs]
viability, T/C (compound 1 µM): 98.2% [middle of 12 runs]
viability, T/C (compound 3.16 µM): 97% [middle of 12 runs]
viability, T/C (compound 10 µM): 101% [middle of 12 runs]

SMILES: CC1COCCN1c1cc(-c2ccnn2C)c2ccnc(-c3ccn[nH]3)c2n1 (configuration not stated) + COC1C(OC(N)=O)C(O)C(Oc2ccc3c(O)c(NC(=O)c4ccc(O)c(CC=C(C)C)c4)c(=O)oc3c2C)OC1(C)C
IC50 (curve of first compound, second compound 0.0316 µM): 257 nM
IC50 (curve of first compound, second compound 0.1 µM): 299 nM
IC50 (curve of first compound, second compound 0.316 µM): 353 nM
IC50 (curve of first compound, second compound 1 µM): 274 nM
IC50 (curve of first compound, second compound 3.16 µM): 276 nM
IC50 (curve of first compound, second compound 10 µM): 298 nM
viability, T/C (second compound 0.0316 µM, first compound 0.0316 µM): 85.6%
viability, T/C (second compound 0.0316 µM, first compound 0.1 µM): 66.5%
viability, T/C (second compound 0.0316 µM, first compound 0.316 µM): 44.7%
viability, T/C (second compound 0.0316 µM, first compound 1 µM): 42%
viability, T/C (second compound 0.0316 µM, first compound 3.16 µM): 23.3%
viability, T/C (second compound 0.0316 µM, first compound 10 µM): 37%
viability, T/C (second compound 0.1 µM, first compound 0.0316 µM): 82.8%
viability, T/C (second compound 0.1 µM, first compound 0.1 µM): 75.4%
viability, T/C (second compound 0.1 µM, first compound 0.316 µM): 47.4%
viability, T/C (second compound 0.1 µM, first compound 1 µM): 41.3%
viability, T/C (second compound 0.1 µM, first compound 3.16 µM): 27%
viability, T/C (second compound 0.1 µM, first compound 10 µM): 38.9%
viability, T/C (second compound 0.316 µM, first compound 0.0316 µM): 92.5%
viability, T/C (second compound 0.316 µM, first compound 0.1 µM): 77.4%
viability, T/C (second compound 0.316 µM, first compound 0.316 µM): 49.5%
viability, T/C (second compound 0.316 µM, first compound 1 µM): 43.1%
viability, T/C (second compound 0.316 µM, first compound 3.16 µM): 25.2%
viability, T/C (second compound 0.316 µM, first compound 10 µM): 39.4%
viability, T/C (second compound 1 µM, first compound 0.0316 µM): 92.1%
viability, T/C (second compound 1 µM, first compound 0.1 µM): 75.2%
viability, T/C (second compound 1 µM, first compound 0.316 µM): 44.9%
viability, T/C (second compound 1 µM, first compound 1 µM): 41.9%
viability, T/C (second compound 1 µM, first compound 3.16 µM): 24.2%
viability, T/C (second compound 1 µM, first compound 10 µM): 39.7%
viability, T/C (second compound 3.16 µM, first compound 0.0316 µM): 94.3%
viability, T/C (second compound 3.16 µM, first compound 0.1 µM): 72.1%
viability, T/C (second compound 3.16 µM, first compound 0.316 µM): 45.1%
viability, T/C (second compound 3.16 µM, first compound 1 µM): 42.4%
viability, T/C (second compound 3.16 µM, first compound 3.16 µM): 25.2%
viability, T/C (second compound 3.16 µM, first compound 10 µM): 37.7%
viability, T/C (second compound 10 µM, first compound 0.0316 µM): 88%
viability, T/C (second compound 10 µM, first compound 0.1 µM): 78.5%
viability, T/C (second compound 10 µM, first compound 0.316 µM): 46.4%
viability, T/C (second compound 10 µM, first compound 1 µM): 42.9%
viability, T/C (second compound 10 µM, first compound 3.16 µM): 25.4%
viability, T/C (second compound 10 µM, first compound 10 µM): 37.2%

SMILES: CC(=O)O[C@H]1C(=O)[C@@]2(C)[C@H]([C@H](OC(=O)c3ccccc3)[C@]3(O)C[C@H](OC(=O)[C@H](O)[C@@H](NC(=O)c4ccccc4)c4ccccc4)C(C)=C1C3(C)C)[C@]1(OC(C)=O)CO[C@@H]1C[C@@H]2O
viability, T/C (compound 0.0949 µM): 83% and 81.7% and 82.3%
viability, T/C (compound 0.3 µM): 77.9% and 70.6% and 74.8%
viability, T/C (compound 0.949 µM): 68.7% and 51.8% and 55.5%
viability, T/C (compound 3 µM): 43.4% and 22.5% and 40.4%
IC50 (curve of compound): 2240 nM and 1180 nM and 1440 nM

SMILES: Nc1ccn(C2OC(CO)C(O)C2(F)F)c(=O)n1 (configuration not stated)
viability, T/C (compound 0.0316 µM): 84.5% and 77.1% and 81%
viability, T/C (compound 0.1 µM): 68.2% and 74.4% and 72%
viability, T/C (compound 0.316 µM): 58.2% and 59% and 56.6%
viability, T/C (compound 1 µM): 49.8% and 43.5% and 39.9%
viability, T/C (compound 3.16 µM): 36.5% and 35.1% and 30.8%
viability, T/C (compound 10 µM): 31.1% and 26.7% and 27.3%
IC50 (curve of compound): 767 nM and 656 nM and 496 nM
